Data set [1] has as its system hair follicles. Description: Topical thymosin β4 on normal (unwounded) shaved rat skin. In kind it is in vivo. The note with it: 30 days after treatment. The procedure: In these experiments, 8 week old female Sprague Dawley rats were utilized. Thymosin β4 was applied on the shaved backs of the animals at a concentration of 0.5 mg/ml in hydrogel three times per week (Monday, Wednesday and Friday). The hair of the animals was observed over 30 days. Some of the animals were sacrificed on day 7 after the initiation of treatment, while others were sacrificed on day 30 after initiation of treatment. Tissue sections were prepared using methods known in the art, as indicated above in Example 1. The tissue section samples were all read and compared on a blind basis by an observer trained in dermatology.
One study used shaved rats where thymosin β4 was applied topically on one side of the shaved area and on the opposing lateral side a control vehicle was applied. […] The number of anagen follicles was approximately two-fold greater than in rats treated with the control vehicle alone (see FIG. 7D). […] The increased number of hairs in the anagen phase was retained with continued tri-weekly treatment over 30 days. However, within 14 days of ceasing treatment, the number of active hair follicles decreased to control levels.

In data set [2] the test system is male patients between 18 and 41 years of age; post-menopausal women. The settings on record: cited from earlier work.
In data set [3] the test system is chick aortic arches. As to the kind of experiment: Chick aortic arch vessel sprouting assay. The data set is classed as cell-based. Also noted: key to Sprouting: − = no activity; +/− = low activity; + = active; ++ = high activity. The settings on record: for Sprouting: Table 2 score; for activity in the assays (endothelial cell migration and vessel sprouting): statement covers both migration and sprouting assays. The procedure:
Chick aortic arch assay—The aortic arch of 13-day-old chick embryos was removed and placed in RPMI 1640. After removal of surrounding connective tissue, transverse sections of the arch were made (1 mm). The resulting aortic rings were carefully attached to the bottom of a 48-well plate, one ring per well, with 20-30 μl of Matrigel (Collaborative Biomedical Products). The rings were placed so that the lumen of each ring could be seen. More Matrigel was added onto the top of the rings to seal them in place. A 100 μl volume of human endothelial—SFM basal growth medium (Invitrogen) containing 1% penicillin streptomycin was added to each well. Thymosin β4, peptide fragments, and exogenous actin (Sigma Chemical Co.) were added to wells in serum-free medium, bringing the final volume of each well to 400 μl. ECGS (200 μg/ml) was used as a positive control. The plates were incubated for 24 hr at 37° C. Rings were fixed and stained with Diff-Quik solution II. Sprouting was scored in a blind assessment by an observer using 10× magnification on an Olympus microscope. Six wells were used for each condition tested, and each assay was done three times.

Data set [4] concerns human umbilical vein endothelial cells. Description: HUVEC migration, Boyden chamber assay. The data set is classed as cell-based. Also noted: key to Migration: − = no activity; +/− = low activity; + = active; ++ = high activity. The note with it: for Migration: Table 2 score. As for the experimental part:
Cells—HUVECs were isolated and used at passages 2-5. Grant et al., J. Cell Sci. 108:3685-3694 (1995). The cells were cultured in RPMI 1640 (Invitrogen, Carlsbad, Calif.) supplemented with 20% bovine calf serum (Hyclone Laboratories, Logan, Utah), 200 μg/ml of endothelial cell growth supplement (ECGS) (Collaborative Biomedical Products, Bedford, Mass.), 0.8 U/ml heparin sodium (Fisher Scientific, Pittsburgh, Pa.), penicillin/streptomycin (Invitrogen, Carlsbad, Calif.), 10 μg/ml gentamycin (Invitrogen, Carlsbad, Calif.), and 1% fungizone (Invitrogen, Carlsbad, Calif.).
Boyden chamber assay—HUVEC migration assays were conducted in a 48-well micro-chemotaxis chamber (Neuro Probe Inc., Cabin John, Md.) as previously described in Salcedo et al., J. Immunol. 166:7571-7578 (2001). Briefly, PVP-free polycarbonate membranes with 8 μm pores were coated with 50 μg/ml of rat tail collagen (BD Biosciences, Bedford, Mass.) in RPMI 1640 that contained 25 mM HEPES (Invitrogen, Carlsbad, Calif.) at 4° C. overnight. The membranes were dried at least 1 hr prior to use. HUVECs were serum-starved for 2 hr, harvested using Versene (Invitrogen, Carlsbad, Calif.), and resuspended in binding medium that contained RPMI 1640 with 1% BSA and 25 mM HEPES. The lower wells of the chamber were loaded with 1, 10, 100, and 1000 ng/ml of thymosin β4 or peptide fragments that were diluted in binding medium. Basic fibroblast growth factor (bFGF) (200 ng/ml) was used as a positive control. Cells were added to the upper portion of the chamber at a concentration of 50,000 cells per well. The chambers were incubated at 37° C. for 4 hr. The filters were fixed and stained using Diff-Quik (VWR, Bridgeport, N.J.). The cells that successfully migrated through the pores of the membrane were manually quantitated using a CK-2 Olympus microscope at 10× magnification. Each condition was assayed in triplicate, and the assay was repeated twice.

[5] abbreviates: 1 mg/day oral for 2 years, male patients 18 to 41 years.

Ends that are not written are not given here.

For the molecule `CC[C@H](C)[C@H](NC(=O)[C@H](CCC(=O)O)NC(=O)[C@H](C)NC(=O)[C@H](CCSC)NC(=O)[C@H](CC(=O)O)NC(=O)[C@@H]1CCCN1C(=O)[C@H](CCCCN)NC(=O)[C@H](CC(=O)O)NC(=O)[C@H](CO)NC(C)=O)C(=O)N[C@@H](CCC(=O)O)C(=O)N[C@@H](CCCCN)C(=O)N[C@@H](Cc1ccccc1)C(=O)N[C@@H](CC(=O)O)C(=O)N[C@@H](CCCCN)C(=O)N[C@@H](CO)C(=O)N[C@@H](CCCCN)C(=O)N[C@@H](CC(C)C)C(=O)N[C@@H](CCCCN)C(=O)N[C@@H](CCCCN)C(=O)N[C@H](C(=O)N[C@@H](CCC(=O)O)C(=O)N[C@H](C(=O)N[C@@H](CCC(N)=O)C(=O)N[C@@H](CCC(=O)O)C(=O)N[C@@H](CCCCN)C(=O)N[C@@H](CC(N)=O)C(=O)N1CCC[C@H]1C(=O)N[C@@H](CC(C)C)C(=O)N1CCC[C@H]1C(=O)N[C@@H](CO)C(=O)N[C@@H](CCCCN)C(=O)N[C@@H](CCC(=O)O)C(=O)N[C@H](C(=O)N[C@H](C(=O)N[C@@H](CCC(=O)O)C(=O)N[C@@H](CCC(N)=O)C(=O)N[C@@H](CCC(=O)O)C(=O)N[C@@H](CCCCN)C(=O)N[C@@H](CCC(N)=O)C(=O)N[C@@H](C)C(=O)NCC(=O)N[C@@H](CCC(=O)O)C(=O)N[C@@H](CO)C(=O)O)[C@@H](C)CC)[C@@H](C)O)[C@@H](C)O)[C@@H](C)O` [Tβ4, Thymosin β4], in data set [1], the “change in the epidermis or in the thickness of the dermis” value is “little change” and the inflammatory cells result is on record as “some increase”.
For `CC(C)(C)NC(=O)[C@H]1CC[C@H]2[C@@H]3CC[C@H]4NC(=O)C=C[C@]4(C)[C@H]3CC[C@]12C` [finasteride], in data set [2] (setting [5]), the “cases in which further hair loss was prevented” value is 83% and the “cases with visible hair growth” value is reported as 66%. Further, in data set [2] (1 mg/day over 1 year), the “efficacy in post-menopausal women” value was “ineffective”. For the same molecule, the side effects result in data set [2] (human, in vivo) was “lack of libido, lack of potency, and mild reduction in semen”.
Regarding “Tβ4^1-8: proteolytic fragment of naturally occurring Tβ4, acSDKP DM (Ac-SDKPDM; UniProt P62328 2-7, looked up, fragment)”, in data set [3], the Sprouting result is “−”; the “activity in the assays (endothelial cell migration and vessel sprouting)” value (shortened to “activity in the assays”) is “inactive”.
Turning to “Tβ4^1-16: synthetic, the first 15 amino acid residues of SEQ ID NO: 1 (SDKPDMAEIEKFDKS; ends and bridges not checked; listed as Bos taurus)”, the Migration result in data set [4] is “−”. Moreover, in data set [3], the “vessel sprouting, in words” value is “very weak activity” and the Sprouting result was “+/−”.
As for “Tβ4^1-28: proteolytic fragment of naturally occurring Tβ4, residues 1 to KN (SDKPDMAEIEKFDKSKLKKTETQEKN; not fully specified; Thymosin beta-4; UniProt P62328 2-27, looked up, fragment)”, in data set [3], the Sprouting result is listed as “+/−”; the “activity in the assays” value was “generally highly active”.
With “Tβ4^7-43: proteolytic fragment of naturally occurring Tβ4, residues 7-43 (AEIEKFDKSKLKKTETQEKNPLPSKETIEQEKQAGES; Thymosin beta-4; UniProt P62328 8-44, looked up, fragment)”, the Migration result in data set [4] is recorded as “++”. In addition, in data set [3], the Sprouting result was “++”; the “activity in the assays” value is listed as “generally highly active”.
Consider “Tβ4^10-28: synthetic, amino acid residues 10-28 of SEQ ID NO: 1 (EKFDKSKLKKTETQEKNPL; listed as Bos taurus)”, for which the Migration result in data set [4] is “+”. Also, in data set [3], the Sprouting entry was “++”; the “activity in the assays” value is reported as “generally highly active”.
Regarding “Tβ4^13-43: proteolytic fragment of naturally occurring Tβ4, residues 13-43 (DKSKLKKTETQEKNPLPSKETIEQEKQAGES; Thymosin beta-4; UniProt P62328 14-44, looked up, fragment)”, the Migration result in data set [4] is on record as “+”. Moreover, in data set [3], the Sprouting result is on record as “+/−”; the “activity in the assays” value is given as “generally highly active”.
With “Tβ4^18-19: synthetic, amino acid residues 13-19 of SEQ ID NO: 1 (DKSKLKK; listed as Bos taurus)”, in data set [3], the Sprouting entry is “−”; the “activity in the assays” value was “inactive”.
Turning to “Tβ4^20-48: synthetic, amino acid residues 20-43 of SEQ ID NO: 1 (TETQEKNPLPSKETIEQEKQAGES; listed as Bos taurus)”, in data set [4], the Migration result is listed as “++”. Further, in data set [3], the Sprouting entry is reported as “+”; the “activity in the assays” value is “generally highly active”.
On to “Tβ4^27-48: proteolytic fragment PLP SKETI EQEKQ AGES (PLPSKETIEQEKQAGES; Thymosin beta-4; UniProt P62328 28-44, looked up, fragment)”, for which, in data set [4], the Migration entry is given as “+”. The Sprouting entry in data set [3] is on record as “+/−”.
On to “Tβ4^Ala: naturally occurring β-thymosin, acADKP variant of Tβ4 (ADKPDMAEIEKFDKSKLKKTETQEKNPLPSKETIEQEKQAGES; Thymosin beta-4 N-terminal acetyl; UniProt P62328 2-44, looked up, variant S1A)”, for which, in data set [3], the Sprouting entry is recorded as “+”; the “activity in the assays” value is recorded as “active”.
“Tβ10: naturally occurring β-thymosin with conserved actin-binding domain (ADKPDMGEIASFDKAKLKKTETQEKNTLPTKETIEQEKRSEIS; UniProt P63313 2-44, looked up)”: the Migration entry in data set [4] was “++”. In addition, in data set [3], the Sprouting entry is “+”; the “activity in the assays” value was “active”.
With “Tβ15^18-28: synthetic peptide of thymosin β15 amino acids 13-23, DK SKLKK TNTE”, in data set [3], the “vessel sprouting, in words” value is on record as “active” and the Sprouting entry was “+”.
Consider “amino acid residues 17-22 of SEQ ID NO: 1: six amino acid residues 17-22 of thymosin β4, shorter actin binding sequence (LKKTET; listed as Bos taurus)”, for which, in data set [4], the “endothelial cell migration, in words” value is given as “promotes endothelial cell migration”.
Turning to “thymosin β4-sulfoxide (SDKPDMAEIEKFDKSKLKKTETQEKNPLPSKETIEQEKQAGES; Thymosin beta-4 methionine sulfoxide; UniProt P62328 2-44, looked up) [Tβ4^(O), sulfoxide form prepared from the naturally occurring peptide]”, in data set [4], the Migration entry was “++”. For the same molecule, in data set [3], the Sprouting result was “++”; the “activity in the assays” value is “active”.
